Experimental findings from patent US20090258917A1 (priority 2005, published 2009) are described below.

The structures appear in SMILES notation. Like-named read-outs stand apart in the source and are kept apart here.

This assay addresses T1, mPGES-1 (Homo sapiens, UniProt O14684).
T1 construct: made in house; host or cells: E. coli
T1 sequence (O14684 1-152): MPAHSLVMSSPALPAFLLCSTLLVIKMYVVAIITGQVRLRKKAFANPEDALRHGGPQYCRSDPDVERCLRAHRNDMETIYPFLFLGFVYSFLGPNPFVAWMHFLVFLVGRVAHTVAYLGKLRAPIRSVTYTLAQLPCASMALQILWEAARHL
Put plainly: mPGES-1 assay: conversion of PGH2 to PGE2, PGE2 analysed by HPLC. In kind it is biochemical. How it is done: In the assay mPGES-1 catalyses the reaction where the substrate PGH2 is converted to PGE2. mPGES-1 is expressed in E. coli and the membrane fraction is dissolved in 20 mM NaPi-buffer pH 8.0 and stored at −80° C. […] The stop solution consists of H2O/MeCN (7/3), containing FeCl2 (25 mM) and HCl (0.15 M). The assay is performed at room temperature in 96-well plates.
The following is added chronologically to each well: • 1. 100 μL mPGES-1 in KPi-buffer with glutathione. Total protein concentration: 0.02 mg/mL. • 2. 1 μL inhibitor in DMSO. Incubation of the plate at room temperature for 25 minutes. • 3. 4 μL of a 0.25 mM PGH2 solution. Incubation of the plate at room temperature for 60 seconds. • 4. 100 μL stop solution. • 180 μL per sample is analyzed with HPLC.

The mark [1] stands for this setting: biological test described above, 10 μM or below, read-out: concentration giving 50% inhibition of mPGES-1.
Setting [2] is: mPGES-1 expressed in E. coli, 25 min preincubation with inhibitor, 60 s with PGH2, room temperature, read-out: IC50.

For the molecule `Cc1cc(C)c2oc(-c3ccc(C)c(NC(=O)c4ccc(Cl)cc4Cl)c3)nc2c1` [2,4-dichloro-N-[2-methyl-5-(5,7-dimethylbenzoxazol-2-yl)phenyl]benzamide], under setting [1], the IC50 is ≤ 10 µM. The same measure, in the same setting: as for `Cc1cc2nc(-c3cccc(NC(=O)c4cc(Cl)ccc4Cl)c3)oc2cc1C` [2,5-dichloro-N-[3-(5,6-dimethylbemoxazol-2-yl)phenyl]benzamide], the figure is ≤ 10 µM; as for `COc1ccc(C(=O)Nc2ccc(Cl)c(-c3nc4cc(C(C)C)ccc4o3)c2)cc1[N+](=O)[O-]` [N-[4-chloro-3-(5-isopropylbenzoxazol-2-yl)phenyl]-4-methoxy-3-nitrobenzamide], ≤ 10 µM. The same measure, in the same setting: as for `CC(C)c1ccc2oc(-c3cc(NC(=O)c4ccccc4[N+](=O)[O-])ccc3Cl)nc2c1` [N-[4-chloro-3-(5-isopropylbenzoxazol-2-yl)phenyl]-2-nitrobenzamide], the figure is ≤ 10 µM. The same measure, in the same setting: with `O=C(Nc1cccc(-c2nc3cc(Cl)cc(Cl)c3o2)c1)c1ccccc1Br` [2-bromo-N-[3-(5,7-dichlorobenzoxazol-2-yl)phenyl]benzamide] the figure was ≤ 10 µM. Consider `Cc1ccc2oc(-c3cc(NC(=O)c4ccccc4F)ccc3Cl)nc2c1` [Example 23, N-[4-Chloro-3-(5-methylbenzoxazol-2-yl)phenyl]-2-fluorobenzamide], for which, under setting [2], the IC50 is 2.6 µM. As for `O=C(Nc1ccc(Cl)c(-c2nc3cc(Cl)ccc3o2)c1)c1ccccc1[N+](=O)[O-]` [N-[4-chloro-3-(5-chlorobenzoxazol-2-yl)phenyl]-2-nitrobenzamide], the IC50 under setting [1] is ≤ 10 µM. Take `Cc1ccc2oc(-c3cc(NC(=O)c4ccccc4OC(F)(F)F)ccc3Cl)nc2c1` [Example 20, N-[4-Chloro-3-(5-methylbenzoxazol-2-yl)phenyl]-2-trifluoromethoxybenzamide]: the IC50 under setting [2] turned out to be 2.3 µM. With `CC(C)c1ccc2oc(-c3cc(NC(=O)c4cccnc4)ccc3Cl)nc2c1` [N-[4-chloro-3-(5-isopropylbenzoxazol-2-yl)phenyl]nicotinamide], the IC50 under setting [1] is ≤ 10 µM. On the same count and under the same terms, with `O=C(Nc1ccc(Cl)c(-c2nc3cc(Cl)ccc3o2)c1)c1ccc([N+](=O)[O-])cc1Cl` [2-chloro-N-[4-chloro-3-(5-chlorobenzoxazol-2-yl)phenyl]-4-nitrobenzamide] the figure was ≤ 10 µM. On the same count and under the same terms, as for `CC(C)c1ccc2oc(-c3cccc(NC(=O)c4cc(Cl)ccc4Cl)c3)nc2c1`, the figure is ≤ 10 µM; as for `CC(C)c1ccc2oc(-c3cc(NC(=O)c4ccccc4Cl)ccc3Cl)nc2c1` [2-chloro-N-[4-chloro-3-(5-isopropylbenzoxazol-2yl)phenyl]benzamide], ≤ 10 µM. With `O=C(Nc1ccc(Cl)c(-c2nc3cc(Cl)ccc3o2)c1)c1ccccc1Cl` [2-chloro-N-[4-chloro-3-(5-chlorobenzoxazol-2-yl)phenyl]benzamide], the IC50 under setting [1] is ≤ 10 µM. For the molecule `Cc1ccc2oc(-c3cccc(NC(=O)c4ccccc4[N+](=O)[O-])c3)nc2c1` [Example 3, N-[3-(5-Methylbenzoxazol-2-yl)phenyl]-2-nitrobenzamide], the IC50 under setting [2] was found to be 1.9 µM. Consider `Cc1ccc2oc(-c3cccc(NC(=O)c4ccccc4Cl)c3)nc2c1` [2-chloro-N-[3-(5-methylbenzoxazol-2-yl)phenyl]benzamide], for which the IC50 under setting [1] was ≤ 10 µM.
